Test results as given in paper PMC10945559, “Forgotten Natural Products: Semisynthetic Development of Blasticidin S As an Antibiotic Lead” (ACS Medicinal Chemistry Letters, 2024).
Values after ≈ are worked out from the molar mass of the structure shown. Like-named read-outs stand apart in the source and are kept apart here. Marks after values point to notes of the source that are not given here.

Experiments:
in vitro = type: cell-based, human; settings: human; MRC-5 (lung fibroblast); 24 h; one biological replicate (n = 3); read-out: CC50 for human cells
Description: (§1) as a range from biological replicates. Inhibition curves were generated using Prism (GraphPad).
(§2) The IC50 values reported in Table 2 are the average of the two biological replicates ± standard […]
(§3) Cytotoxicity Assay Procedure
(§4) Human lung fibroblast cells, MRC -5 (CCL-171), were cultured at 37℃ with 5% CO2 and were plated at 5000 cells/well in a 96 -well plate. Compounds 1, 2, and 15-22 were initially prepared at concentrations of 5.12 mg/mL in a vehicle of 50% DMSO. Dilutions of the compounds (4 – 512 μg/mL) were then prepared in growth medium containing Dulbecco’s modified Eagle’s medium (DMEM) with high glucose, L -glutamine, and sodium pyruvate supplemented with 10% fetal bovine serum (FBS), 1% non -essential amino acids, and 0.1% gentamicin sulfate, and 25mM HEPES. The vehicle (50% DMSO) was also prepared via the sa me dilution series to serve as a control. Growth media was removed from the cells and replaced with the same volume of each compound dilution. Cells were incubated for 24 h , after which CellTiter 96® AQueous One Solution Reagent was added to each well as recommended by the manufacturer’s protocol (Promega CellTiter 96 AQueous One Solution Cell Proliferation Assay) and further incubated for 4 h. After incubation, absorbance was measured at 490 nm on an Infinite M plex multimode microplate reader with i -control Tecan software. Viability was calculated by subtracting media only absorbance values and normalizing to the vehicle control at each concentration. The presented data is one assay performed in triplicate that is representative of multiple trials. Data for the 256 and 512 μg/mL concentrations were removed from analysis due to vehicle toxicity […]
(§5) CC50 concentrations were determined via the ED50 Plus v1.0 software (https://archive.org/details/ed50v10_zip).
Figure S41. The effect of compounds on cell viability. The lines represent non -linear regression curves, and error bars represent means ± […]
SD (n=3). […]

[1] = test system: Klebsiella pneumoniae ATCC 29665; test: Broth microdilution antibacterial assay; type: cell-based; settings: for IC50 / MIC: Klebsiella pneumoniae, ATCC29665; for Selectivity index (CC50/IC50): MRC-5 CC50 / K. pneumoniae IC50
Description: (§6) Antibacterial Assay Procedure
(§7) Broth Microdilution Assays
(§8) Media and solutions were autoclaved or sterile filtered prior to use and manipulations were carried out in a laminar flow hood. Antibacterial testing was performed in polypropylene 96 -well flat bottom plates. The minimal inhibitory concentration of blasticidin S ( 1) hydrochloride, P10 (2), and derivatives 15–22 were assessed against Staphylococcus aureus ΔNorA, S. aureus 8810, methicillin-resistant S. aureus (MRSA) ATCC 43300, Enterococcus faecalis ATCC 29212, vancomycin-resistant Enterococcus, Klebsiella pneumoniae ATCC 29665, Pseudomonas aeruginosa, and Acinetobacter baumannii ATCC 17978 using serial dilutions. Doxycycline (Gold Bio) as a positive control and the vehicle as a negative control. Stock solutions of each compound were prepared at 5.12 mg/mL in 50% DMSO/water and serially diluted in 50% DMSO/water to create master plates. From the master plates, 10 μL of each dilution was applied to test plates using a Bravo automated liquid transfer system (Agilent). Bacteria previously grown overnight (37 °C, 120 – 200 RPM), in LB broth were diluted to an OD600 of 0.0 5 in cation-adjusted Mueller-Hinton broth, grown to an OD600 of ~0.5, and diluted to an OD600 of 0.004 in cation-adjusted Mueller-Hinton broth. These diluted cultures were applied to the test plates (190 μL per test well) resulting in final concentrations of the test compounds of 256–2 μg/mL. Growth controls (wells with inoculated media but no vehicle or test compounds) were included to assess any potential toxicity from the vehicle. The plates were incubated at 37 °C for 16–18 h, except for VRE and E. faecalis, which were incubated at 37 °C for 24 h. Inhibition was determined by measuring the optical density at 600 nm (OD600) with a Cytation 3 plate reader (BioTek). The optical density measurements were normalized to the positive and negative controls and the vehicle and growth controls were compared and found to be indistinguishable, indicating no toxicity from the vehicle used. The MIC was the lowest concentration that inhibited >90% of growth. Two biological replicates were performed in duplicate. MIC values are reported […]
as §1, §2, §3, §4, §5

[2] = test system: vancomycin-resistant Enterococcus (VRE); test: Broth microdilution antibacterial assay; type: cell-based; settings: for IC50 / MIC: Enterococcus, VRE; for Selectivity index (CC50/IC50): MRC-5 CC50 / VRE IC50
Description: as §6, §7, §8, §1, §2, §3, §4, §5

Pseudomonas aeruginosa = test: Broth microdilution antibacterial assay; type: cell-based; settings: for Selectivity index (CC50/IC50): MRC-5 CC50 / P. aeruginosa IC50; for IC50 / MIC: Pseudomonas aeruginosa
Description: as §6, §7, §8, §1, §2, §3, §4, §5

[3] = test system: Staphylococcus aureus ΔNorA; test: Broth microdilution antibacterial assay; type: cell-based; settings: for Selectivity index (CC50/IC50): MRC-5 CC50 / S. aureus ΔNorA IC50; for IC50 / MIC: Staphylococcus aureus
Description: as §6, §7, §8, §1, §2, §3, §4, §5

[4] = test system: Enterococcus faecalis ATCC 29212; test: Broth microdilution antibacterial assay; type: cell-based; settings: for IC50 / MIC: Enterococcus faecalis; for Selectivity index (CC50/IC50): MRC-5 CC50 / E. faecalis IC50
Description: as §6, §7, §8, §1, §2, §3, §4, §5

[5] = test system: Acinetobacter baumannii ATCC 17978; test: Broth microdilution antibacterial assay; type: cell-based; settings: for IC50 / MIC: Acinetobacter baumannii, ATCC17978; for Selectivity index (CC50/IC50): MRC-5 CC50 / A. baumannii IC50
Description: as §6, §7, §8, §1, §2, §3, §4, §5

S. aureus 8810 = test: Broth microdilution antibacterial assay; type: cell-based, Staphylococcus aureus; settings: for Selectivity index (CC50/IC50): MRC-5 CC50 / S. aureus IC50
Description: as §6, §7, §8, §1, §2, §3, §4, §5

[6] = test system: methicillin-resistant S. aureus (MRSA) ATCC 43300; test: Broth microdilution antibacterial assay; type: cell-based, Staphylococcus aureus; settings: for Selectivity index (CC50/IC50): MRC-5 CC50 / MRSA IC50; for IC50 / MIC: Staphylococcus aureus
Description: as §6, §7, §8, §1, §2, §3, §4, §5

[7] = K. pneumoniae, average of two biological replicates ± S.D., read-out: IC50
[8] = K. pneumoniae, lowest concentration inhibiting >90% of growth, range from biological replicates, read-out: MIC
[9] = average MIC, Table S3, read-out: Average Activity against VRE
[10] = average of two biological replicates ± S.D., read-out: IC50
[11] = P. aeruginosa, average of two biological replicates ± S.D., read-out: IC50
[12] = ATCC29212, E. faecalis, 24 h, lowest concentration inhibiting >90% of growth, range from biological replicates, read-out: MIC
[13] = ATCC29212, E. faecalis, average of two biological replicates ± S.D. (18: one biological replicate), read-out: IC50
[14] = ATCC29212, average MIC, Table S3, read-out: Average Activity against E. faecalis
[15] = A. baumannii, average of two biological replicates ± S.D., read-out: IC50
[16] = A. baumannii, lowest concentration inhibiting >90% of growth, range from biological replicates, read-out: MIC
[17] = Staphylococcus aureus, 8810, S. aureus, average of two biological replicates ± S.D., read-out: IC50
[18] = Staphylococcus aureus, 8810, S. aureus, lowest concentration inhibiting >90% of growth, range from biological replicates, read-out: MIC
[19] = Staphylococcus aureus, 8810, average MIC, Table S3, read-out: Average Activity against S. aureus
[20] = MRSA, average of two biological replicates ± S.D., read-out: IC50
[21] = MRSA, lowest concentration inhibiting >90% of growth, range from biological replicates, read-out: MIC
[22] = average MIC, Table S3, read-out: Average Activity against MRSA

SMILES	CC50 at 24 h (in vitro) [µg/mL]	Selectivity index (CC50/IC50) [1]	MIC ([2]; 24 h) [µg/mL]	Selectivity index (CC50/IC50) [2]	Selectivity index (CC50/IC50) (Pseudomonas aeruginosa)	MIC (Pseudomonas aeruginosa) [µg/mL]	Selectivity index (CC50/IC50) [3]	IC50 [3] [µg/mL]	MIC [3] [µg/mL]	Selectivity index (CC50/IC50) [4]	Selectivity index (CC50/IC50) [5]	Selectivity index (CC50/IC50) (S. aureus 8810)	Selectivity index (CC50/IC50) [6]	IC50 [1, 7] [µg/mL]	MIC [1, 8] [µg/mL]	MIC [2, 9] [µg/mL]	IC50 [2, 10] [µg/mL]	IC50 (Pseudomonas aeruginosa; [11]) [µg/mL]	MIC [4, 12] [µg/mL]	IC50 [4, 13] [µg/mL]	also measured
CCCNC(=O)[C@H]1O[C@@H](n2ccc(N)nc2=O)C=C[C@@H]1NC(=O)C[C@@H](N)CCN(C)C(=N)N [Compound 17]	61.1 (≈ 132 µM)	1.4	64 (≈ 138 µM)	3.6	3.2	64 (≈ 138 µM)	3.9	15.8 ± 1.1 (≈ 34.1 µM)	64 to 128 (≈ 138 to 276 µM)	6.6	1.6	16	8.1								IC50 [1]: 44.9 ± 3.2 µg/mL (≈ 96.9 µM); MIC [1]: 128 to 256 µg/mL (≈ 276 to 552 µM); IC50 [2]: 16.8 ± 3.1 µg/mL (≈ 36.2 µM); MIC ([2]; read-out: Average Activity against VRE): 64 µg/mL (≈ 138 µM); IC50 (Pseudomonas aeruginosa): 19.3 ± 1.6 µg/mL (≈ 41.6 µM); IC50 ([4]; ATCC29212): 9.3 ± 1.7 µg/mL (≈ 20.1 µM); MIC ([4]; ATCC29212, 24 h): 16 to 32 µg/mL (≈ 34.5 to 69 µM); MIC ([4]; ATCC29212, read-out: Average Activity against E. faecalis): 16 µg/mL (≈ 34.5 µM); IC50 [5]: 39.3 ± 1.9 µg/mL (≈ 84.8 µM); MIC [5]: > 256 µg/mL; IC50 (S. aureus 8810; Staphylococcus aureus, 8810): 3.9 ± 0.1 µg/mL (≈ 8.41 µM); MIC (S. aureus 8810; Staphylococcus aureus, 8810): 16 to 32 µg/mL (≈ 34.5 to 69 µM); MIC (S. aureus 8810; Staphylococcus aureus, 8810, read-out: Average Activity against S. aureus): 24 µg/mL (≈ 51.8 µM); IC50 [6]: 7.6 ± 0.8 µg/mL (≈ 16.4 µM); MIC [6]: 16 to 32 µg/mL (≈ 34.5 to 69 µM); MIC ([6]; read-out: Average Activity against MRSA): 24 µg/mL (≈ 51.8 µM)
CN(C)C(=O)[C@H]1O[C@@H](n2ccc(N)nc2=O)C=C[C@@H]1NC(=O)C[C@@H](N)CCN(C)C(=N)N [Compound 18]	63.9 (≈ 142 µM)	1.1	64 to 128 (≈ 142 to 285 µM)	2.3	3.4	64 to 128 (≈ 142 to 285 µM)	3.5	18.3 ± 1.4 (≈ 40.7 µM)	128 (≈ 285 µM)	3.7 ^b	1.4	9.1	5.0	60.1 ± 4.7 (≈ 134 µM)	256 (≈ 570 µM)	96 (≈ 214 µM)	27.7 ± 11 (≈ 61.6 µM)	18.8 ± 2.6 (≈ 41.8 µM)	16 to 32 (≈ 35.6 to 71.2 µM)	17 (≈ 37.8 µM)	MIC [4, 14]: 32 µg/mL (≈ 71.2 µM); IC50 [5, 15]: 46.4 ± 7 µg/mL (≈ 103 µM); MIC [5, 16]: 256 µg/mL (≈ 570 µM); IC50 (S. aureus 8810; [17]): 7 ± 1.5 µg/mL (≈ 15.6 µM); MIC (S. aureus 8810; [18]): 64 µg/mL (≈ 142 µM); MIC (S. aureus 8810; [19]): 64 µg/mL (≈ 142 µM); IC50 [6, 20]: 12.8 ± 1.9 µg/mL (≈ 28.5 µM); MIC [6, 21]: 32 µg/mL (≈ 71.2 µM); MIC [6, 22]: 32 µg/mL (≈ 71.2 µM)
C#CCNC(=O)[C@H]1O[C@@H](n2ccc(N)nc2=O)C=C[C@@H]1NC(=O)C[C@@H](N)CCN(C)C(=N)N [Compound 19]	33.1 (≈ 72 µM)	0.8		1.6	2.1		2.0	16.2 ± 0.9 (≈ 35.3 µM)	64 to 128 (≈ 139 to 279 µM)	4.4	1.6	9.2	4.8	40.4 ± 6.2 (≈ 87.9 µM)	128 (≈ 279 µM)	64 (≈ 139 µM)	21.1 ± 4.8 (≈ 45.9 µM)	16.1 ± 0.9 (≈ 35 µM)	16 to 32 (≈ 34.8 to 69.6 µM)	7.6 ± 1.5 (≈ 16.5 µM)	MIC ([2]; 24 h, lowest concentration inhibiting >90% of growth, range from biological replicates, read-out: MIC): 64 µg/mL (≈ 139 µM); MIC (Pseudomonas aeruginosa; P. aeruginosa, lowest concentration inhibiting >90% of growth, range from biological replicates, read-out: MIC): 64 µg/mL (≈ 139 µM); MIC [4, 14]: 16 µg/mL (≈ 34.8 µM); IC50 [5, 15]: 21.1 ± 3.9 µg/mL (≈ 45.9 µM); MIC [5, 16]: 128 µg/mL (≈ 279 µM); IC50 (S. aureus 8810; [17]): 3.6 ± 0.3 µg/mL (≈ 7.83 µM); MIC (S. aureus 8810; [18]): 32 µg/mL (≈ 69.6 µM); MIC (S. aureus 8810; [19]): 32 µg/mL (≈ 69.6 µM); IC50 [6, 20]: 6.9 ± 1.2 µg/mL (≈ 15 µM); MIC [6, 21]: 16 to 32 µg/mL (≈ 34.8 to 69.6 µM); MIC [6, 22]: 24 µg/mL (≈ 52.2 µM)
